Results reported in ChEMBL document CHEMBL4673230, “Total Synthesis of Natural Lembehyne C and Investigation of Its Cytotoxic Properties” (J Nat Prod, 2020).
Calls of active or inactive are those of the source. The calls are words filed in the database; no cut-off is given here.

Assays:
Jurkat [1] = assay: Induction of cell cycle arrest in human Jurkat cells assessed as accumulation at sub-G1 phase at 100 nM after 24 hrs by Guava Cell Cycle reagent based flow cytometric analysis relative to control; type: functional
Jurkat [2] = assay: Induction of ROS generation in human Jurkat cells assessed as mitochondria damaged cells at 200 nM after 4 hrs by MitoSox Red/annexin V-CF488A staining based flow cytometric analysis (reference value: 0%); type: functional
Jurkat [3] = assay: Induction of cell cycle arrest in human Jurkat cells assessed as accumulation at G2 phase at 100 nM after 24 hrs by Guava Cell Cycle reagent based flow cytometric analysis relative to control; type: functional
Jurkat [4] = assay: Induction of cell cycle arrest in human Jurkat cells assessed as accumulation at G2 phase at 50 nM after 24 hrs by Guava Cell Cycle reagent based flow cytometric analysis relative to control; type: functional
Jurkat [5] = assay: Induction of mitochondrial membrane potential loss in human Jurkat cells assessed as early apoptotic cells at 200 nM after 4 hrs by MitoSense Red/7-AAD. flow cytometric analysis relative to control; type: functional
Jurkat [6] = assay: Induction of DNA damage in human Jurkat cells assessed as increase in H2Ax phosphorylation at 0.4 uM after 2 hrs by Alexa Fluor555 staining based flow cytometric analysis; type: functional, cell-based
Jurkat [7] = assay: Induction of apoptosis in human Jurkat cells assessed as viable cells at 400 nM after 24 hrs by Annexin V/7-AAD staining.based flow cytometric analysis relative to control; type: functional; conditions: read-out: Activity
[8] = Effect on total p70S6K level in human jurkat cells at 400 nM by magnetic bead based immunoassay; type: cell-based; conditions: 0.4 µM
[9] = Effect on total ERK1/2 level in human jurkat cells at 400 nM by magnetic bead based immunoassay; type: cell-based; conditions: 0.4 µM
Jurkat [10] = assay: Induction of apoptosis in human Jurkat cells assessed as necrotic cells at 200 nM after 24 hrs by Annexin V/7-AAD staining.based flow cytometric analysis relative to control; type: functional
Jurkat [11] = assay: Induction of apoptosis in human Jurkat cells assessed as late apoptotic cells at 200 nM after 24 hrs by Annexin V/7-AAD staining.based flow cytometric analysis relative to control; type: functional
Jurkat [12] = assay: Induction of cell cycle arrest in human Jurkat cells assessed as accumulation at S phase at 200 nM after 24 hrs by Guava Cell Cycle reagent based flow cytometric analysis relative to control; type: functional
Jurkat [13] = assay: Induction of apoptosis in human Jurkat cells assessed as early apoptotic cells at 400 nM after 24 hrs by Annexin V/7-AAD staining.based flow cytometric analysis relative to control; type: functional
Jurkat [14] = assay: Induction of cell cycle arrest in human Jurkat cells assessed as accumulation at sub-G1 phase at 200 nM after 24 hrs by Guava Cell Cycle reagent based flow cytometric analysis relative to control; type: functional
Jurkat [15] = assay: Induction of cell cycle arrest in human Jurkat cells assessed as accumulation at super-G2 phase at 100 nM after 24 hrs by Guava Cell Cycle reagent based flow cytometric analysis relative to control; type: functional
K562 = assay: Cytotoxicity against human K562 cells assessed as reduction in cell viability by 7-AAD staining based flow cytometric analysis; type: functional
Jurkat [16] = assay: Induction of cell cycle arrest in human Jurkat cells assessed as accumulation at G1 phase at 400 nM after 24 hrs by Guava Cell Cycle reagent based flow cytometric analysis relative to control; type: functional
Jurkat [17] = assay: Induction of cell cycle arrest in human Jurkat cells assessed as accumulation at G2/G1 phase at 400 nM after 24 hrs by Guava Cell Cycle reagent based flow cytometric analysis relative to control; type: functional
Jurkat [18] = assay: Induction of mitochondrial membrane potential loss in human Jurkat cells assessed as late apoptotic cells at 400 nM after 4 hrs by MitoSense Red/7-AAD. flow cytometric analysis relative to control; type: functional
Jurkat [19] = assay: Induction of ROS generation in human Jurkat cells at 200 nM after 2 hrs by MitoSox Red/annexin V-CF488A staining based flow cytometric analysis relative to control; type: functional
Jurkat [20] = assay: Induction of apoptosis in human Jurkat cells assessed as late apoptotic cells at 50 nM after 24 hrs by Annexin V/7-AAD staining.based flow cytometric analysis relative to control; type: functional
Jurkat [21] = assay: Induction of mitochondrial membrane potential loss in human Jurkat cells assessed as late apoptotic cells at 200 nM after 4 hrs by MitoSense Red/7-AAD. flow cytometric analysis relative to control; type: functional
Jurkat [22] = assay: Induction of cell cycle arrest in human Jurkat cells assessed as accumulation at super-G2 phase at 200 nM after 24 hrs by Guava Cell Cycle reagent based flow cytometric analysis relative to control; type: functional
Jurkat [23] = assay: Induction of cell cycle arrest in human Jurkat cells assessed as accumulation at G2/G1 phase at 200 nM after 24 hrs by Guava Cell Cycle reagent based flow cytometric analysis relative to control; type: functional
Jurkat [24] = assay: Induction of cell cycle arrest in human Jurkat cells assessed as accumulation at G2/G1 phase at 100 nM after 24 hrs by Guava Cell Cycle reagent based flow cytometric analysis relative to control; type: functional
Jurkat [25] = assay: Induction of ROS generation in human Jurkat cells assessed as mitochondria damaged cells at 200 nM after 24 hrs by MitoSox Red/annexin V-CF488A staining based flow cytometric analysis (reference value: 0%); type: functional
Jurkat [26] = assay: Induction of apoptosis in human Jurkat cells assessed as early apoptotic cells at 50 nM after 24 hrs by Annexin V/7-AAD staining.based flow cytometric analysis relative to control; type: functional
Jurkat [27] = assay: Induction of cell cycle arrest in human Jurkat cells assessed as accumulation at S phase at 400 nM after 24 hrs by Guava Cell Cycle reagent based flow cytometric analysis relative to control; type: functional
Jurkat [28] = assay: Induction of mitochondrial membrane potential loss in human Jurkat cells assessed as early apoptotic cells at 400 nM after 4 hrs by MitoSense Red/7-AAD. flow cytometric analysis relative to control; type: functional
Jurkat [29] = assay: Induction of apoptosis in human Jurkat cells assessed as late apoptotic cells at 400 nM after 24 hrs by Annexin V/7-AAD staining.based flow cytometric analysis relative to control; type: functional
Jurkat [30] = assay: Induction of cell cycle arrest in human Jurkat cells assessed as accumulation at S phase at 100 nM after 24 hrs by Guava Cell Cycle reagent based flow cytometric analysis relative to control; type: functional

`C#C[C@H](O)CCCCCCCCC/C=C\CC/C=C\CC/C=C\CCCCCCCCCCCCCCCC` showed an Activity (Jurkat [1]) of 13.99%, an Activity (Jurkat [2]) of 0.16% and an Activity (Jurkat [3]) of 7.28%. The Activity (Jurkat [4]) was 5.09%, the Activity (Jurkat [5]) was 0.9% and the Activity (Jurkat [6]) was “inactive”. The viability at 0.4 µM (Jurkat [7]) was 32.9%, the Activity [8] was “Toxic” and the Activity [9] was “Toxic”. The Activity (Jurkat [10]) was 7.51%, the Activity (Jurkat [11]) was 43.15% and the Activity (Jurkat [12]) was 28.57%. The Activity (Jurkat [13]) was 15.86%, the Activity (Jurkat [14]) was 18.01% and the Activity (Jurkat [15]) was 1.21%. The IC50 (K562) was 373 nM, the Activity (Jurkat [16]) was 30.24% and the Activity (Jurkat [17]) was 1.93%. The Activity (Jurkat [18]) was 2.87%, the Activity (Jurkat [19]) was 25.4% and the Activity (Jurkat [20]) was 23.53%. It also gave an Activity (Jurkat [21]) of 0.84%, an Activity (Jurkat [22]) of 0.91% and an Activity (Jurkat [23]) of 1.91%. For the same compound, the Activity (Jurkat [24]) was 1.94%, the Activity (Jurkat [25]) was 0% and the Activity (Jurkat [26]) was 14.25%. The Activity (Jurkat [27]) was 31.5%, the Activity (Jurkat [28]) was 3.32% and the Activity (Jurkat [29]) was 50.24%. For the same compound, the Activity (Jurkat [30]) was 30.33%.
